Laboratory results: PubChem BioAssay AID2060600 (Molecular Pharmacology Branch, DTP, NCI, 2025)
“And” between values parts separate entries of the source, which are not always exact repeats. Equal values may be shown once.

Tested on: 996289-038-R-J1-PDC complex spheroid viability
Experiment: Anticancer human tumor 996289-038-R-J1-PDC patient-derived colon adenocarcinoma cell line growth inhibition [CLK]
Details: for viability, T/C: stronger effect = lower value; for IC50: curve of compound
From the text: A high-throughput screen of multi-cell type tumor spheroids was designed to identify active combinations of […] and targeted small molecules. Complex spheroids include a stromal component modeled by human endothelial cells (HUVEC) and fibroblasts modeled by human mesenchymal stem cells (MSCs). The concentration ranges selected for each drug and investigational agent were based upon clinically achievable concentrations if the clinical Cmax of the agent was known.
Compounds. The drugs and investigational agents: cirtuvivint (SM08502; NSC835563), CC-671 (NSC850746), vemurafenib (NSC761431), tapotoclax (NSC804041), sotorasib (NSC818433), adagrasib (NSC831453), MRTX-1133 (NSC836407), BAY2416964 (NSC825713), copanlisib (NSC816437), inavolisib (NSC800729), abemaciclib (NSC768073), osimertinib (NSC779217), entinostat (NSC756642), eltanexor (KPT-8602, NSC794443), venetoclax (NSC766270), ceralasertib (NSC777638), bortezomib (NSC756655), olaparib (NSC753686), talazoparib (NSC767125), alisertib (NSC759677), peposertib (NSC802822), gemcitabine (NSC613327), 5-fluorouracil (NSC19893), SN-38 (NSC673596), oxaliplatin (NSC266046), paclitaxel (NSC125973), and doxorubicin (NSC123127), were obtained from the National Cancer Institute (NCI) Developmental Therapeutics Program Chemical Repository. The FDA-approved anticancer drug set is available from the Developmental Therapeutics Program at https://dtp.cancer.gov/organization/dscb/obtaining/available plates.htm. […] The stock solutions were prepared in dimethyl sulfoxide (DMSO, Sigma-Aldrich, St. Louis, MO, cat. D2650), except for the platinum complexes which were prepared in saline (Quality Biological, Gaithersburg, MD, cat. 114-055-101), at 800-fold the tested concentration and stored at -70 degrees C prior to their use. All drugs and investigational agents were tested over a range starting from a high concentration at or near the clinical Cmax and decreasing in half-log increments. If the clinical Cmax for an agent had not been determined, the highest concentration tested was 10 microM.
Cell Culture. All cells were maintained in an incubator at 37 degrees C and 5% CO2 with 95% humidity. The PDC lines were cultured according to standard operating procedures established by the NCI PDMR. Briefly, all PDCs were thawed and cultured in Matrigel-coated flasks prepared with a working solution of 1X Ham's F-12 nutrient mix, without supplementation (Invitrogen, Waltham, MA, cat. 11765054), 100 U/mL penicillin-streptomycin (Invitrogen, cat. 15140122), and 2.5% Matrigel (Corning Inc., Corning, NY, cat. 354248) for the first three passages. The 947758-054-R-J2-PDC line was cultured in 6B/Colon 1A media, which includes advanced DMEM/F-12 (Thermo Fisher Scientific, cat. 12634028), 10 mM HEPES (Thermo Fisher Scientific, cat. 15630080), 1X GlutaMAX supplement (Thermo Fisher Scientific, cat. 35050061), 0.1 mg/mL primocin (InvivoGen, cat. ant-pm-2), 10% defined fetal bovine serum, heat inactivated (HyClone Laboratories Inc., cat. SH30070.03HI), 1.25 mM N-Acetyl-L-cysteine (Sigma-Aldrich, cat. A9165), 10 mM nicotinamide (Sigma-Aldrich, cat. N0636), 1X B-27 supplement (Thermo Fisher Scientific, cat. 17504044), 1X N-2 supplement (Thermo Fisher Scientific, cat. 17502048), and 10 microM Y-27632 dihydrochloride (Tocris Bioscience, cat. 1254). The 876862-298-R-J1-PDC was cultured in 6E media, which includes all 6B/Colon 1A media components plus 50% L-WRN conditioned media (ATCC, cat. CRL-3276), 50 ng/mL recombinant human EGF recombinant protein (hEGF; Thermo Fisher Scientific, cat. PHG0311), 10 ng/mL recombinant human fibroblast growth factor 10 (hGFG-10; PeproTech, cat. 100-26), 1 ng/mL recombinant human fibroblast growth factor 2 (hFGF-2; PeproTech, cat. 100-18B), and 1 µM prostaglandin E2 (PGE2; Tocris, cat. 2296). The 227483-062-R1-J1-PDC line was cultured in Panc media, containing all 6E components except hFGF-2, with the addition of 500 nM SB-431542 (Selleckchem, cat. S1067) and 10 nM gastrin (Tocris, cat. 3006). […]
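Note: spheroids exposed to the agents for 7 days before readout.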

Compound	viability, T/C (compound 0.0316 µM)	viability, T/C (compound 0.1 µM)	viability, T/C (compound 0.316 µM)	viability, T/C (compound 1 µM)	viability, T/C (compound 3.16 µM)	viability, T/C (compound 10 µM)	IC50
C#Cc1c(F)ccc2cc(O)cc(-c3ncc4c(N5CC6CCC(C5)N6)nc(OCC56CCCN5CC(F)C6)nc4c3F)c12 (stereo not drawn)	95.8% and 98.9%	80.1% and 91.3%	65.1% and 73.6%	59.3% and 49.8%	41.1% and 37.4%	30.7% and 33.3%	1.58 µM and 1 µM
CC(=O)O[C@H]1C(=O)[C@@]2(C)[C@H]([C@H](OC(=O)c3ccccc3)[C@]3(O)C[C@H](OC(=O)[C@H](O)[C@@H](NC(=O)c4ccccc4)c4ccccc4)C(C)=C1C3(C)C)[C@]1(OC(C)=O)CO[C@@H]1C[C@@H]2O	94.2% and 106%	85.8% and 89.7%	68.7% and 72.4%	59.8% and 63.7%	58.6% and 73%	61.5% and 67.2%	> 10 µM
CC(CO)NC(=O)c1cc(-c2ccc(Cl)cc2)nn(-c2cnn(C)c2)c1=O (stereo not drawn)	104% and 103%	99.9% and 95.8%	94.6% and 96.1%	92.1% and 100%	103% and 92.2%	88.4% and 88.7%	> 10 µM
CC(Nc1ccc2c(c1)OCCn1cc(N3C(=O)OCC3C(F)F)nc1-2)C(N)=O (stereo not drawn)	97.5% and 100%	78.5% and 75.5%	72.1% and 74.9%	63.5% and 60.5%	54.1% and 53.5%	46.5% and 44.3%	6.04 µM and 4.5 µM
CC1(C)CCC(CN2CCN(c3ccc(C(=O)NS(=O)(=O)c4ccc(NCC5CCOCC5)c([N+](=O)[O-])c4)c(Oc4cnc5[nH]ccc5c4)c3)CC2)=C(c2ccc(Cl)cc2)C1	108% and 106%	94.2% and 83.6%	101% and 109%	109% and 100%	118% and 121%	38.2% and 44.7%	8.2 µM and 9.04 µM
CC1COCCN1c1cc(C2(S(C)(=N)=O)CC2)nc(-c2ccnc3[nH]ccc23)n1 (stereo not drawn)	103% and 102%	97.6% and 89.7%	96.9% and 106%	97.9% and 102%	97.8% and 101%	84.4% and 81.6%	> 10 µM
COc1ccc([C@@H](O)c2cc(-c3ncnc4cc(N5CCOCC5)ccc34)c(F)cc2Cl)nn1	102%	92.7% and 88.9%	101% and 90.7%	93.3% and 87.7%	77.5% and 79.5%	50.1% and 52.1%	> 10 µM
COc1cccc2c1C(=O)c1c(O)c3c(c(O)c1C2=O)CC(O)(C(=O)CO)CC3OC1CC(N)C(O)C(C)O1 (stereo not drawn)	100% and 103%	87.1% and 86.2%	76.5% and 79.6%	59.4% and 62.6%	49% and 51.9%	35.5% and 36.7%	2.65 µM and 3.33 µM
Nc1ccccc1NC(=O)c1ccc(CNC(=O)OCc2cccnc2)cc1	88.5% and 105%	89.2% and 81.2%	91.8% and 98.1%	87.1% and 85%	61.8% and 65.7%	42.5% and 44.2%	6.4 µM and 7.34 µM
